# Reference: patent publication US20230126447A1, “OCULAR DRUG DEPOT FOR COMPLEMENT-MEDIATED DISORDERS” (priority 2020, published 2023)
# “And” between values parts separate entries of the source, which are not always exact repeats. Identical values can stand only once. Like-named read-outs stand apart in the source and are kept apart here.
# Columns and labels:
# [1] = In vitro binding to melanin from Sepia officinalis; conditions: S. officinalis melanin 50 μg/mL, PBS, 37° C., 1 hour
# Procedure: […] The melanin solution was stored in the dark at 37° C. until use.
# Immediately after the assay, samples were added to an equal volume of warm PBS, aliquots (3 μL each) were removed, added to 100 μL of acetonitrile containing carbutamide as internal standard, and then diluted with water (197 μL). These time-zero samples, prepared in PBS only, were also used as calibration standards.
# The assay plates containing samples with and without melanin were incubated in the dark with shaking at 37° C. for 1 hour. Following incubation, the samples were centrifuged for 15 minutes at approximately 4000 rpm at 37° C. to sediment the melanin. Sample supernatant (3 μL) was added to 100 μL of acetonitrile containing the internal standard and then diluted with water (197 μL).
# The column was set to a temperature of 55° C. […]
# Analytes and internal standards were detected using an Applied Biosystems Sciex API-5500 triple quadrupole mass spectrometer with Agilent 1260 Infinity Binary Pump and Apricot Designs ADDA High-Speed Dual Arm Autosampling System. The instrument was equipped with an electrospray ionization source (600° C.) operated in the positive ion mode. Analytes and internal standards for all samples were monitored in the multiple-reaction-monitoring scan mode.
# AP activity = experiment: Wieslab assay (AP activity in vitro); type: biochemical
# [2] = Phase 1 single ascending dose plasma pharmacokinetics in healthy volunteers; type: in vivo, human
# Procedure: This study was conducted in healthy human volunteers in a randomized, double-blind design. Compound 1 or placebo was administered as a single oral dose to twenty-eight healthy volunteers in three separate dose groups. […] Pharmacokinetic data from each volunteer is summarized in Table 29, and plasma concentration data is shown graphically in FIG. 19.
# [3] = Group 1, 200 mg single oral dose, individual subjects
# [4] = Group 2, 600 mg single oral dose, individual subjects
# [5] = Group 3, 1200 mg single oral dose, individual subjects
structure (smiles),measurement,setting,value
"CC(=O)c1nn(CC(=O)N2C[C@H](F)C[C@H]2C(=O)Nc2cccc(Br)n2)c2ccc(-c3cnc(C)nc3)cc12 [Compound 1, (2S,4R)-1-(2-(3-Acetyl-5-(2-methylpyrimidin-5-yl)-1H-indazol-1-yl)acetyl)-N-(6-bromopyridin-2-yl)-4-fluoropyrrolidine-2-carboxamide]",Bmax (binding capacity),[1],137 nmol/mg melanin
same,IC50,AP activity,26 nM
same,AUC(0-24),[2]; [3],3387.20 ng·h/mL and 4128.01 ng·h/mL and 2339.30 ng·h/mL and 3615.79 ng·h/mL and 1888.95 ng·h/mL and 2229.07 ng·h/mL
same,AUC(0-∞),[2]; [3],3616.53 ng·h/mL and 4241.37 ng·h/mL and 2569.69 ng·h/mL and 3822.48 ng·h/mL and 1993.07 ng·h/mL and 2385.64 ng·h/mL
same,Cmax,[2]; [3],950 ng/mL and 2060 ng/mL and 764 ng/mL and 1380 ng/mL and 635 ng/mL and 562 ng/mL
same,Tmax,[2]; [3],1.25 h
same,AUC(0-24),[2]; [4],6591.55 ng·h/mL and 6135.83 ng·h/mL and 6020.33 ng·h/mL and 4079.30 ng·h/mL and 7288.50 ng·h/mL
same,AUC(0-∞),[2]; [4],6805.91 ng·h/mL and 7335.98 ng·h/mL and 6903.06 ng·h/mL and 4687.40 ng·h/mL and 8671.53 ng·h/mL
same,Cmax,[2]; [4],2480 ng/mL and 2100 ng/mL and 1380 ng/mL and 1810 ng/mL
same,Tmax,[2]; [4],2.00 h and 1.25 h
same,AUC(0-24),[2]; [5],11822.00 ng·h/mL and 10219.40 ng·h/mL and 8431.90 ng·h/mL and 11357.50 ng·h/mL and 14054.00 ng·h/mL
same,AUC(0-∞),[2]; [5],13297.29 ng·h/mL and 10982.71 ng·h/mL and 10243.93 ng·h/mL and 13190.18 ng·h/mL and 15424.93 ng·h/mL
same,Cmax,[2]; [5],3080 ng/mL and 3230 ng/mL and 3530 ng/mL and 1940 ng/mL and 2530 ng/mL and 4100 ng/mL
same,AUC(0-t),"[2]; human, po, 200 mg, Group 1, 200 mg single oral dose, Mean (N 6), read-out: AUC(0-24)",2930 ng·h/mL
same,AUC(0-inf),"[2]; human, po, 200 mg, Group 1, 200 mg single oral dose, Mean (N 6), read-out: AUC(0-∞)",3100 ng·h/mL
same,Cmax,"[2]; human, po, 200 mg, Group 1, 200 mg single oral dose, Mean (N 6), read-out: Cmax",1060 ng/mL
same,Tmax,"[2]; human, po, 200 mg, Group 1, 200 mg single oral dose, Mean (N 6), read-out: Tmax",1.79 h
same,Tmax,"[2]; human, po, 200 mg, Group 1, 200 mg single oral dose, individual subjects, read-out: Tmax",1.5 h
same,AUC(0-t),"[2]; human, po, 200 mg, Group 1, 200 mg single oral dose, read-out: Mean AUC(0-24)",2390 ng·h/mL
same,AUC(0-inf),"[2]; human, po, 200 mg, Group 1, 200 mg single oral dose, read-out: Mean AUC(0-∞)",3020 ng·h/mL
same,Cmax,"[2]; human, po, 200 mg, Group 1, 200 mg single oral dose, read-out: Mean Cmax",1060 ng/mL
same,AUC(0-t),"[2]; human, po, 600 mg, Group 2, 600 mg single oral dose, Mean (N 6), read-out: AUC(0-24)",6190 ng·h/mL
same,AUC(0-inf),"[2]; human, po, 600 mg, Group 2, 600 mg single oral dose, Mean (N 6), read-out: AUC(0-∞)",7090 ng·h/mL
same,Cmax,"[2]; human, po, 600 mg, Group 2, 600 mg single oral dose, Mean (N 6), read-out: Cmax",2020 ng/mL
same,Tmax,"[2]; human, po, 600 mg, Group 2, 600 mg single oral dose, Mean (N 6), read-out: Tmax",1.63 h
same,AUC(0-t),"[2]; human, po, 600 mg, Group 2, 600 mg single oral dose, individual subjects, read-out: AUC(0-24)",7020 ng·h/mL
same,AUC(0-inf),"[2]; human, po, 600 mg, Group 2, 600 mg single oral dose, individual subjects, read-out: AUC(0-∞)",8160 ng·h/mL
same,Cmax,"[2]; human, po, 600 mg, Group 2, 600 mg single oral dose, individual subjects, read-out: Cmax",2180 ng/mL
same,AUC(0-t),"[2]; human, po, 600 mg, Group 2, 600 mg single oral dose, read-out: Mean AUC(0-24)",6190 ng·h/mL
same,AUC(0-inf),"[2]; human, po, 600 mg, Group 2, 600 mg single oral dose, read-out: Mean AUC(0-∞)",7090 ng·h/mL
same,Cmax,"[2]; human, po, 600 mg, Group 2, 600 mg single oral dose, read-out: Mean Cmax",2020 ng/mL
same,AUC(0-t),"[2]; human, po, 1200 mg, Group 3, 1200 mg single oral dose, Mean (N 6), read-out: AUC(0-24)",11400 ng·h/mL
same,AUC(0-inf),"[2]; human, po, 1200 mg, Group 3, 1200 mg single oral dose, Mean (N 6), read-out: AUC(0-∞)",13200 ng·h/mL
same,Cmax,"[2]; human, po, 1200 mg, Group 3, 1200 mg single oral dose, Mean (N 6), read-out: Cmax",3070 ng/mL
same,Tmax,"[2]; human, po, 1200 mg, Group 3, 1200 mg single oral dose, Mean (N 6), read-out: Tmax",2.5 h
same,AUC(0-t),"[2]; human, po, 1200 mg, Group 3, 1200 mg single oral dose, individual subjects, read-out: AUC(0-24)",12700 ng·h/mL
same,AUC(0-inf),"[2]; human, po, 1200 mg, Group 3, 1200 mg single oral dose, individual subjects, read-out: AUC(0-∞)",15800 ng·h/mL
same,Tmax,"[2]; human, po, 1200 mg, Group 3, 1200 mg single oral dose, individual subjects, read-out: Tmax",2.5 h
same,AUC(0-t),"[2]; human, po, 1200 mg, Group 3, 1200 mg single oral dose, read-out: Mean AUC(0-24)",11400 ng·h/mL
same,AUC(0-inf),"[2]; human, po, 1200 mg, Group 3, 1200 mg single oral dose, read-out: Mean AUC(0-∞)",13200 ng·h/mL
same,Cmax,"[2]; human, po, 1200 mg, Group 3, 1200 mg single oral dose, read-out: Mean Cmax",3070 ng/mL
